The results in this text go back to patent publication US10280170B2, “Substituted 4,5,6,7-tetrahydro-pyrazolo[1,5-a]pyrazine derivatives and 5,6,7,8-tetrahydro-4H-pyrazolo[1,5-a][1,4]diazepine derivatives as Ros1 inhibitors” (Janssen Pharmaceutica NV, priority 2014, dated 2019).

Molecules are shown by their SMILES. Read-outs that look alike come from different tables or passages of the source.

The target of data set [1] is T1, Ba/F3 cells containing Ros1 wild-type protein (Homo sapiens, UniProt P08922, cells depend on it, form not given).
T1 construct: The background only speaks of 'a number of different unrelated proteins' and names SLC34A2-ROS1 for HCC78 cells
T1 sequence (P08922 whole entry, stated change not applied): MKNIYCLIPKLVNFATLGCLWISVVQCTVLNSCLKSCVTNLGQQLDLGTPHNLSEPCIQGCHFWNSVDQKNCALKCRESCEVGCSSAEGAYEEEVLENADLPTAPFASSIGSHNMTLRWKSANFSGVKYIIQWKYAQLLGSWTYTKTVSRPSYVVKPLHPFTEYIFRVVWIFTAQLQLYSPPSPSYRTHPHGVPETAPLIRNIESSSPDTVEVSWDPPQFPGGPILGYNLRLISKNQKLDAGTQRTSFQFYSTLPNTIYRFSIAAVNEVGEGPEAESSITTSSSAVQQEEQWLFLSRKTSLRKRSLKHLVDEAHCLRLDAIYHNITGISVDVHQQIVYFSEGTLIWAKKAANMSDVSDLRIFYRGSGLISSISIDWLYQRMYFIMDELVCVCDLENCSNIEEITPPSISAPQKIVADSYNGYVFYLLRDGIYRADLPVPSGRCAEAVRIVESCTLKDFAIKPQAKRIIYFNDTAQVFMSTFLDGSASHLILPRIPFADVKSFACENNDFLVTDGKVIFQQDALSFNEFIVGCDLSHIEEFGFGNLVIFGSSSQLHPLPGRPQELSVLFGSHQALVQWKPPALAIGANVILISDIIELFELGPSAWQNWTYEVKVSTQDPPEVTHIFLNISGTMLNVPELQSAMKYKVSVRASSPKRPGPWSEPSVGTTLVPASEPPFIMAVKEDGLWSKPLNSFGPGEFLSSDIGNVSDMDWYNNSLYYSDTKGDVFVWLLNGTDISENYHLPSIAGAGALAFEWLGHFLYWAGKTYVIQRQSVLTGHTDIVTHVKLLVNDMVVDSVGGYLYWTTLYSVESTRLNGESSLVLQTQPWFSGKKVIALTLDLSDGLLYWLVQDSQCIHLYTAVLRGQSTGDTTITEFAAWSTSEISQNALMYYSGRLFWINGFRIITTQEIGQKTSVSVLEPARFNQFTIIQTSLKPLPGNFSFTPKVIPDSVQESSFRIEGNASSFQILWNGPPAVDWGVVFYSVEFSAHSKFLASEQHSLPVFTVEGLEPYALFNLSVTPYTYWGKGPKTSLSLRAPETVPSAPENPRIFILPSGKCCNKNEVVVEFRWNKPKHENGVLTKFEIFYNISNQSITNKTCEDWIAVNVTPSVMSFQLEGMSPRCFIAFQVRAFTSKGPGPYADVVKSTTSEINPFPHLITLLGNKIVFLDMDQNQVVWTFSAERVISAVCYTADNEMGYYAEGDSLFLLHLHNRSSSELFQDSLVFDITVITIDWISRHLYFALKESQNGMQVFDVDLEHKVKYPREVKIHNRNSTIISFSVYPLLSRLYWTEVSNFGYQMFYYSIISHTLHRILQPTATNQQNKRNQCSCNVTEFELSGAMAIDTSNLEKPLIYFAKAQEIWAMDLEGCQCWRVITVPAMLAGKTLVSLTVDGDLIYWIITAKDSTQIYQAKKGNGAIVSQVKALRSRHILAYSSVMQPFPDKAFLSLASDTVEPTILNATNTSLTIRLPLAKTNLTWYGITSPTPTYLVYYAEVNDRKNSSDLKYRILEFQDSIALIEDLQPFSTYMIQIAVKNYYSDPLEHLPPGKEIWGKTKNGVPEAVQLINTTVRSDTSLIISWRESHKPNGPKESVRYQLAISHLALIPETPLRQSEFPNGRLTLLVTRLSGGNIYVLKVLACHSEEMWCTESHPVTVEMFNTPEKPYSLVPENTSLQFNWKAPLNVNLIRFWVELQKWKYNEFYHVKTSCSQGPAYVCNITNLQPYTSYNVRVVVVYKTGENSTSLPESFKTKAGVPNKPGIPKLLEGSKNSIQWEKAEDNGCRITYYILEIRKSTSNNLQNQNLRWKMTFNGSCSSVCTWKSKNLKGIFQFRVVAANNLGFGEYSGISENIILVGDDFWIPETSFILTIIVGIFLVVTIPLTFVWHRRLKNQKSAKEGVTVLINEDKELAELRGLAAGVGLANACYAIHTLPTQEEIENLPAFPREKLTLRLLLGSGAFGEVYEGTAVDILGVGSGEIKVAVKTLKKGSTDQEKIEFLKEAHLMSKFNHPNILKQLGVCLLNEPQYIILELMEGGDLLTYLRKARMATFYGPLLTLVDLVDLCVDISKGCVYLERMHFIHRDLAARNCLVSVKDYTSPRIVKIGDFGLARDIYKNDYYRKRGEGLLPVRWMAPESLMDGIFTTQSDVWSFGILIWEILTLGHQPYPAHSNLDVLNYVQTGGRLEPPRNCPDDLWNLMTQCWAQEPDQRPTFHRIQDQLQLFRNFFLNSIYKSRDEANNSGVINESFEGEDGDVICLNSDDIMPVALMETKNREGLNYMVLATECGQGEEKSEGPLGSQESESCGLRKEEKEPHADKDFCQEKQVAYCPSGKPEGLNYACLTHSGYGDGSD
Kind of data set: Ba/F3-Ros1 cell proliferation assay, wild-type Ros1. The data set is classed as cell-based, murine. Particulars: without IL-3. The method in brief:
(§1)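 20000 Ba/F3-Ros1 cells/well (WT, L2026M, G2032R), RPMI-1640 phenol red free + 10% FBS + 2 mM Gln, cpds from DMSO; 24 h, 37 °C, 5% CO2. Alamar Blue 4 h, RFU ex540/em590.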

For data set [2], the system named is Ba/F3 cells containing Ros1 wild-type protein + IL-3. In words: Ba/F3-Ros1 cell proliferation counter-screen, wild-type protein in the presence of 10 ng/ml murine IL-3. The data set is classed as cell-based. The conditions noted are these: Mus musculus, BaF3, 24 h, read-out: BaF3-ROS1 + IL3 pIC50 (converted). The procedure, abridged:
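Ba/F3 cells expressing wild-type Ros1, 20000 per well in RPMI-1640 with 10% FBS, cultured with compounds for 24 h at 37 °C with 10 ng/ml murine IL-3. Alamar Blue (resazurin) then added for 4 h. Fluorescence read at ex 540/em 590 nm.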
Background: A counterscreen serves to expose hits that act by an unwanted route or on another target.

In another data set the target is T2, Ros1 enzyme (Homo sapiens, UniProt P08922).
T2 construct: 0.5 μg/ml Ros1 enzyme
T2 sequence (P08922 28-2347): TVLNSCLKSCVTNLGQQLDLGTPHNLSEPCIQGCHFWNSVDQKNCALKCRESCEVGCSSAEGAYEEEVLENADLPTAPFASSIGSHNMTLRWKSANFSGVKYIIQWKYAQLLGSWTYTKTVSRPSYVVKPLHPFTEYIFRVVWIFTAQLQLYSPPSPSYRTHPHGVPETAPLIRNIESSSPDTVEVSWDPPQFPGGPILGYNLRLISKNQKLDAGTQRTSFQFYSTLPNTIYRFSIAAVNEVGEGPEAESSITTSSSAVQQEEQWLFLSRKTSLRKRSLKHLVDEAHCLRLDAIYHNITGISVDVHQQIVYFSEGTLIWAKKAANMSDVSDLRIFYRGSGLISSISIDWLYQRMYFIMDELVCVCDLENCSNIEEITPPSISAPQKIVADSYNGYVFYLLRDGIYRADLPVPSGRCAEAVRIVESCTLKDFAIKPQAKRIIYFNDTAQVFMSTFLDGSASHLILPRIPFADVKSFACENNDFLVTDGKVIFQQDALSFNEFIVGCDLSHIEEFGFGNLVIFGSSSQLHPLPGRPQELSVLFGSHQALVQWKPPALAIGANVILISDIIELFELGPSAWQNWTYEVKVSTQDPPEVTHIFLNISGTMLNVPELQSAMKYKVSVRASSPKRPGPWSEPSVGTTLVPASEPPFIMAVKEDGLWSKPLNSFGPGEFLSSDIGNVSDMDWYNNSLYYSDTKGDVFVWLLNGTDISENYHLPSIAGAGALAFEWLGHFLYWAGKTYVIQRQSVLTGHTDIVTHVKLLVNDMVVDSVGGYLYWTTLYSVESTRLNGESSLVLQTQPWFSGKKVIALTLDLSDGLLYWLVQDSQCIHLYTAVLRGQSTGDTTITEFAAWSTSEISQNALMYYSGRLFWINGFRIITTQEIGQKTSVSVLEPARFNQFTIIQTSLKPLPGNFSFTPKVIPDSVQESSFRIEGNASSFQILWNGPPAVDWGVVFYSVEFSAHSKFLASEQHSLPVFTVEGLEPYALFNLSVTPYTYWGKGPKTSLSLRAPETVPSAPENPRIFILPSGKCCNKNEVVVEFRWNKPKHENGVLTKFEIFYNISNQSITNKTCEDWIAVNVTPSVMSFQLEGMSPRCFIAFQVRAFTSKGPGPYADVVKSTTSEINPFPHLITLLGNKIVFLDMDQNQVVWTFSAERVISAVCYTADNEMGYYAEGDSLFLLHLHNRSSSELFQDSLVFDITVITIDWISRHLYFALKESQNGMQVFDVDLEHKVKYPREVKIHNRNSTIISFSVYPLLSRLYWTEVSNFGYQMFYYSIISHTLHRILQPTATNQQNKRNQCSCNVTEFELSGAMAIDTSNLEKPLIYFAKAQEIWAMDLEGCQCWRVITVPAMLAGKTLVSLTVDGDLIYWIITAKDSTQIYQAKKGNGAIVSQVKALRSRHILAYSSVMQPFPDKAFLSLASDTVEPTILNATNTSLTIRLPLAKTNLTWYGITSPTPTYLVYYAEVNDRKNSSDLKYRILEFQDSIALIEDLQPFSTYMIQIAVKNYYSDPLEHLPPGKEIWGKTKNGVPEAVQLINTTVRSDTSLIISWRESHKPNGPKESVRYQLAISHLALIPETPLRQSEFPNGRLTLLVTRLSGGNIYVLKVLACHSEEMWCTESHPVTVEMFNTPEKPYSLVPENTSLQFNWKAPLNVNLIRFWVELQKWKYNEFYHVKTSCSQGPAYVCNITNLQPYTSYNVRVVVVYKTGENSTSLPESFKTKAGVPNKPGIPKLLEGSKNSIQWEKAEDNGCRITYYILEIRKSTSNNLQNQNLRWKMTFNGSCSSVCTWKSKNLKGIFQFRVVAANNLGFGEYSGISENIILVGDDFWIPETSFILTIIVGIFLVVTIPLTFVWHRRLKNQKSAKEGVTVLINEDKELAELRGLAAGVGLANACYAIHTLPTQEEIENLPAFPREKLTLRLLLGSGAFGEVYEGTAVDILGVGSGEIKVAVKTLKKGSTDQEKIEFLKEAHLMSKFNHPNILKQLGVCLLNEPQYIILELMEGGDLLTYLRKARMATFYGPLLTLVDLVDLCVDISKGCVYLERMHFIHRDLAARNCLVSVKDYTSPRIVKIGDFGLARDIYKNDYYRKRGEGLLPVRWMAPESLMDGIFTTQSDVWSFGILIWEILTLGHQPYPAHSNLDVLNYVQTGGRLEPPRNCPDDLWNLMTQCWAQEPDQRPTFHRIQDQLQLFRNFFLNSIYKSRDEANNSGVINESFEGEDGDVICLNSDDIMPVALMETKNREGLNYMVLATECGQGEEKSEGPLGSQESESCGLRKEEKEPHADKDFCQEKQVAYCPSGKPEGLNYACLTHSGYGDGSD
Kind of data set: Ros1 enzymatic assay. The conditions noted are these: Ros1 enzymatic assay; read-out: ROS1 pIC50 (converted). The data set is classed as biochemical. The procedure, abridged:
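A radiometric assay mixed enzyme mix (0.5 μg/ml human Ros1) with substrate mix (6 μg/ml biotinylated IRS-Tide, 20 μM ATP plus [33P]ATP), both in 50 mM Tris-HCl pH 7.5, 10 mM MgCl2, 1 mM EGTA, 0.01% Tween-20. The reaction ran 120 min at room temperature, was stopped with EDTA plus streptavidin imaging beads, and was read by LEADseeker imaging.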

For data set [3], the target named is Ba/F3 cells containing Ros1 with a mutation at the gatekeeper residue (L2026M) (Homo sapiens, UniProt P08922, L2026M, cells depend on it, form not given). In words: Ba/F3-Ros1 cell proliferation assay, L2026M gatekeeper mutant. The data set is classed as cell-based, murine. The conditions noted are these: without IL-3. The method in brief:
as §1

Data set [4] concerns the target Ba/F3 cells containing Ros1 with G2032R mutation (Homo sapiens, UniProt P08922, G2032R, cells depend on it, form not given). Kind of data set: Ba/F3-Ros1 cell proliferation assay, G2032R crizotinib-resistance mutant. The conditions noted are these: without IL-3. Format: cell-based, murine. How it is done:
Ba/F3-Ros1 Cell Proliferation Assay
This assay was carried out with Ba/F3 cells containing three different versions of Ros1: the wild-type protein, protein with a mutation at the gatekeeper residue (L2026M), and protein with a mutation identified in a tumor from a patient that became resistant to crizotinib (Xalkori®) treatment (G2032R). Compounds were solubilized in 100% DMSO (dimethyl sulfoxide) and sprayed into polystyrene, tissue culture treated 384-well plates. A 50 μl volume of cell culture medium (phenol red free RPMI-1640, 10% FBS (fetal bovine serum), 2 mM L-Glutamine) containing 20000 Ba/F3-Ros1 cells was added to each well and the plates were placed in an incubator at 37° C. and 5% CO2. After 24 hours, 10 μl of Alamar Blue solution (0.5 mM K3Fe(CN)6, 0.5 mM K4Fe(CN)6, 0.15 mM Resazurin and 100 mM Phosphate Buffer) was added to the wells, incubated for 4 hours at 37° C. and 5% CO2 before RFU's (Relative Fluorescence Units) (ex. 540 nm., em. 590 nm.) were measured in a fluorescence plate reader.

The test system of data set [5] is Ros pY2274 in HCC78 cells. Kind of data set: pROS1 immunofluorescence assay in HCC78 cells. Format: cell-based. The conditions noted are these: Homo sapiens, read-out: HCC78-pRos1 pIC50 (converted). The method in brief: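 HCC78 NSCLC cells treated with compound for 4 h at 37 °C, then fixed and immunostained for ROS1 pY2274 (Alexa Fluor 680, read at 700 nm). Total ROS1 stained in parallel (IRDye800cw, 800 nm) and used to normalize phospho signal.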

In data set [6] the test system is HCC78 non-small cell lung cancer cells. Kind of data set: HCC78 cell proliferation assay. The conditions noted are these: Homo sapiens, HCC78, 96 h, read-out: HCC-78 PROL pEC50 (converted). The data set is classed as cell-based. The procedure, abridged: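 HCC78 NSCLC cells (~1000/well) in RPMI-1640 with 10% FBS were treated 24 h after seeding and exposed to compound for 4 days at 37 °C. Viability was read by MTT, with absorbance at 538 nm after DMSO/glycine solubilization.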

Chain of Ba/F3 cells containing Ros1 with a mutation at the gatekeeper residue (L2026M) (P08922 whole entry L2026M, form open): as the sequence (P08922 whole entry, stated change not applied) above, with L2026M counted along it
Chain of Ba/F3 cells containing Ros1 with G2032R mutation (P08922 whole entry G2032R, form open): as the sequence (P08922 whole entry, stated change not applied) above, with G2032R counted along it

By melting point is commonly meant the temperature, or range, at which the solid turns liquid. Regarding `CN1CCn2nc(-c3ccncc3)c(-c3ccc(OCc4ccc(C5CC5)nc4)cc3)c2C1=O` [Compound 138], the melting point amounted to 175 °C. Moreover, in data set [1], the “BaF3-ROS1-IL3 pIC50” value amounted to 6.9. Further, in data set [2] (counter-screen, wild-type, 10 ng/ml murine IL-3), the CC50 was greater than 10000 nM. For the same compound, at Ros1 enzyme, the IC50 was 100 nM. Besides, in data set [3], the “Ba/F3 Ros1 L2026M (-IL-3) pIC50” value was determined as 6.8. In addition, the “Ba/3 Ros1 G2032R (-IL-3) pIC50” value in data set [4] amounted to 6.0. For the same compound, in data set [5] (HCC78 cells, 4 hours, Ros pY2274 normalized to total Ros1), the IC50 was 316 nM. Moreover, the EC50 in data set [6] (HCC78 cells, 4 days, MTT) was 501 nM.

The compound `CC(C)c1ccc(COc2ccc(-c3c(-c4ccncc4)nn4c3C(=O)N(CC3(C)COC3)CC4)cc2)cc1` [Compound 54] registered a melting point of 204 °C. In data set [1], the “BaF3-ROS1-IL3 pIC50” value is listed as 7.3. Also, the CC50 in data set [2] was greater than 10000 nM. The IC50 on Ros1 enzyme was 79.4 nM. Further, in data set [3], the “Ba/F3 Ros1 L2026M (-IL-3) pIC50” value worked out at 7.2. Also, the “Ba/3 Ros1 G2032R (-IL-3) pIC50” value in data set [4] is recorded as 6.6. Besides, the IC50 in data set [5] (HCC78, 4 h) was 20 nM. The EC50 in data set [6] was 79.4 nM.

`CC(C)c1ccc(COc2ccc(-c3c(-c4ccncc4)nn4c3C(=O)NCC4)cn2)cc1` [Compound 71] showed a melting point of 199 °C. Besides, the “BaF3-ROS1-IL3 pIC50” value in data set [1] is 7.7. Besides, the CC50 in data set [2] is greater than 10000 nM. For the same compound, on Ros1 enzyme, the IC50 is 25.1 nM. Further, in data set [3], the “Ba/F3 Ros1 L2026M (-IL-3) pIC50” value came out at 7.6. In addition, the “Ba/3 Ros1 G2032R (-IL-3) pIC50” value in data set [4] amounted to 7.0. Further, the IC50 in data set [5] (HCC78, 4 h) was 39.8 nM. In data set [6], the EC50 is 100 nM.
